The target in the first test is T1, human KCNK13 (Homo sapiens, UniProt Q9HB14).
T1 construct: expressed in transfected cells
T1 sequence (Q9HB14 1-408): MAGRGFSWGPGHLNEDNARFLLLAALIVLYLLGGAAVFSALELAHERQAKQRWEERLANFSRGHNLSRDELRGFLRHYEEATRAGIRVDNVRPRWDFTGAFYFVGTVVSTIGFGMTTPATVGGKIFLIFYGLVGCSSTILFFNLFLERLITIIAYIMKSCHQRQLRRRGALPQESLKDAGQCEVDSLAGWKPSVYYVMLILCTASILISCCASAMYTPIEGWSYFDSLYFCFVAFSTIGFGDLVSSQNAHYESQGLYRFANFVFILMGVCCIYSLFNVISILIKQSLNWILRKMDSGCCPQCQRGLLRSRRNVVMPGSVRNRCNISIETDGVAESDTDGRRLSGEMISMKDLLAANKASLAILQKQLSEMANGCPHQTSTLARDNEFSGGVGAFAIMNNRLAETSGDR
As to the kind of experiment: KCNK13 antagonist activity, thallium (Tl+) flux FLIPR assay. The test is classed as cell-based.
Settings: not given
As for the experimental part:
KCNK13 antagonist activity was determined by measuring changes in intracellular Thallium (Tl^+) concentrations using a Tl^+ sensitive fluorescent dye. The changes in fluorescent signal were monitored by Fluorescent Imaging Plate Reader (FLIPR™) technology available from Molecular Devices, LLC, US. KCNK13 mediated increases in intracellular Tl+concentration were readily detected by addition of a thallium sulfate stimulus. 24 hours prior to the assay, human embryonic kidney 293 cells (HEK 293 cells) stably expressing human KCNK13 were seeded in cell culture medium in PDL coated black, clear-bottom 384-well plates (commercially available from Corning Inc., 356663) and grown overnight at 37° C., 5% CO2. On the day of the assay, cell culture media was removed and cells were loaded with potassium dye (commercially sold by Molecular Devices, LLC, US, R8222) for 1 hour at room temperature in the dark. Test compounds (at 10 point half log concentration response curves from […]) were added to cells for 15 minutes prior to the addition of thallium sulfate to all wells. The IC50 values were determined from ten point concentration response curves. Curves were generated using the average of two wells for each data point.
For `Cc1nonc1-c1nc2cccnc2n1Cc1ccc(Cl)nc1` [Example 24, 3-[3-[(6-chloropyridin-3-yl)methyl]imidazo[4,5-b]pyridin-2-yl]-4-methyl-1,2,5-oxadiazole], the IC50 – broadly, the midpoint of a concentration-inhibition curve – was less than 100 nM.
Regarding `Nc1nonc1-c1nc2ncc(F)cc2n1Cc1ccc(Cl)nc1` [Example 159, 4-(1-((6-chloropyridin-3-yl)methyl)-6-fluoro-1H-imidazo[4,5-b]pyridin-2-yl)-1,2,5-oxadiazol-3-amine], the IC50 was less than 50 nM.

The same test, now with this note: HEK 293 cells stably expressing human KCNK13; Tl+ sensitive dye, FLIPR; compounds 15 minutes prior to thallium sulfate; 10 point half log curves from 10 PM; read-out: hKCNK13 IC50.
As to `COc1ccc(Cn2c(-c3nonc3C)nc3ccccc32)cn1` [Example 53, 3-[1-[(6-methoxypyridin-3-yl)methyl]benzimidazol-2-yl]-4-methyl-1,2,5-oxadiazole], the IC50 was less than 100 nM.
Turning to `Fc1nsnc1-c1nc2ccccc2n1Cc1cccnc1` [Example 108, 3-fluoro-4-[1-(pyridin-3-ylmethyl)benzimidazol-2-yl]-1,2,5-thiadiazole], the IC50 was less than 500 nM.
Same read-out and setting: the value for `Nc1nonc1-c1nc2ncc(F)cc2n1Cc1cncnc1` [Example 160, 4-(6-fluoro-1-(pyrimidin-5-ylmethyl)-1H-imidazo[4,5-b]pyridin-2-yl)-1,2,5-oxadiazol-3-amine] was less than 500 nM; that for `COc1ccc(Cn2c(-c3nonc3C)nc3cccc(F)c32)cn1` [Example 43, 3-[7-fluoro-1-[(6-methoxypyridin-3-yl)methyl]benzimidazol-2-yl]-4-methyl-1,2,5-oxadiazole] was less than 1000 nM.
The same measure, in the same setting: the value for `Nc1nonc1-c1nc2c(F)ccc(F)c2n1Cc1cccnc1` [Example 22, 4-[4,7-difluoro-1-(pyridin-3-ylmethyl)benzimidazol-2-yl]-1,2,5-oxadiazol-3-amine] was less than 50 nM; that for `Cc1nonc1-c1nc2c(F)cccc2n1Cc1ccc(C#N)nc1` [Example 40, 5-[[4-fluoro-2-(4-methyl-1,2,5-oxadiazol-3-yl)benzimidazol-1-yl]methyl]pyridine-2-carbonitrile] was less than 100 nM.
Consider `Cc1ncc(Cn2c(-c3nonc3C)nc3ccccc32)cn1` [Example 64, 3-methyl-4-[1-[(2-methylpyrimidin-5-yl)methyl]benzimidazol-2-yl]-1,2,5-oxadiazole], for which the IC50 was less than 200 nM.
The same measure, in the same setting: the value for `Cc1ccc(Cn2c(-c3nonc3N)nc3cccc(F)c32)nn1` (single isomer, unassigned) [Example 168, 4-(7-fluoro-1-((6-methylpyridazin-3-yl)methyl)-benzimidazol-2-yl)-1,2,5-oxadiazol-3-amine] was less than 50 nM; that for `Nc1nonc1-c1nc2ccc(F)cc2n1Cc1cccnc1` (single isomer, unassigned) [Example 118, 4-[6-fluoro-1-(pyridin-3-ylmethyl)benzimidazol-2-yl]-1,2,5-oxadiazol-3-amine] was less than 50 nM; that for `Cc1nsnc1-c1nc2ccc(F)cc2n1Cc1ccc(C#N)nc1` [Example 80, 5-[[6-fluoro-2-(4-methyl-1,2,5-thiadiazol-3-yl)benzimidazol-1-yl]methyl]pyridine-2-carbonitrile] was less than 1000 nM.
On to `N#Cc1ncc(Cn2c(-c3nonc3N)nc3cccnc32)cn1` [Example 11, 5-[[2-(4-amino-1,2,5-oxadiazol-3-yl)imidazo[4,5-b]pyridin-3-yl]methyl]pyrimidine-2-carbonitrile], for which the IC50 is less than 200 nM.
On the same count and under the same terms, then `Nc1nonc1-c1nc2cncc(F)c2n1Cc1cccnn1` (single isomer, unassigned) [Example 187, 4-(7-fluoro-1-(pyridazin-3-ylmethyl)-1H-imidazo[4,5-c]pyridin-2-yl)-1,2,5-oxadiazol-3-amine], with less than 500 nM; and `Nc1nonc1-c1nc2cccc(F)c2n1Cc1ccc(Cl)nn1` (single isomer, unassigned) [Example 148, 4-(1-((6-chloropyridazin-3-yl)methyl)-7-fluoro-benzimidazol-2-yl)-1,2,5-oxadiazol-3-amine], with less than 50 nM.
On to `CNc1ccc(Cn2c(-c3nonc3C)nc3ccccc32)cn1` [Example 73, N-methyl-5-[[2-(4-methyl-1,2,5-oxadiazol-3-yl)benzimidazol-1-yl]methyl]pyridin-2-amine], for which the IC50 was less than 500 nM.
Still for that read-out and setting: then `N#Cc1ccc(Cn2c(-c3nonc3N)nc3cccnc32)cn1` [Example 51, 5-[[2-(4-amino-1,2,5-oxadiazol-3-yl)imidazo[4,5-b]pyridin-3-yl]methyl]pyridine-2-carbonitrile], with less than 500 nM; and `Cc1nonc1-c1nc2c(F)cccc2n1Cc1cnc(C#N)cn1` [Example 42, 5-[[4-fluoro-2-(4-methyl-1,2,5-oxadiazol-3-yl)benzimidazol-1-yl]methyl]pyrazine-2-carbonitrile], with less than 1000 nM; and `Fc1cccc2nc(-c3cnns3)n(Cc3cccnc3)c12` [Example 68, 5-[7-fluoro-1-(pyridin-3-ylmethyl)benzimidazol-2-yl]-1,2,3-thiadiazole], with less than 200 nM.
As to `Cc1cc(Cn2c(-c3nonc3C)nc3ccccc32)ccn1` [Example 74, 3-methyl-4-[1-[(2-methylpyridin-4-yl)methyl]benzimidazol-2-yl]-1,2,5-oxadiazole], the IC50 was less than 500 nM.
Take `Cc1nonc1-c1nc2ccccc2n1Cc1ccc(S(C)(=O)=O)nc1` [Example 58, 3-methyl-4-[1-[(6-(methylsulfonyl)pyridin-3-yl)methyl]benzimidazol-2-yl]-1,2,5-oxadiazole]: the IC50 is less than 100 nM.
In the case of `Cc1snnc1-c1nc2c(F)cccc2n1Cc1cccnc1` (single isomer, unassigned) [Example 129, 4-[4-fluoro-1-(pyridin-3-ylmethyl)benzimidazol-2-yl]-5-methyl-1,2,3-thiadiazole], the IC50 was less than 100 nM.
Consider `Nc1nonc1-c1nc2c(F)cccc2n1Cc1cccnc1` (single isomer, unassigned) [Example 87, 4-[4-fluoro-1-(pyridin-3-ylmethyl)benzimidazol-2-yl]-1,2,5-oxadiazol-3-amine], for which the IC50 is less than 50 nM.
Still for that read-out and setting: the value for `Nc1nsnc1-c1nc2cccc(F)c2n1Cc1cccnn1` (single isomer, unassigned) [Example 156, 4-(7-fluoro-1-(pyridazin-3-ylmethyl)-benzimidazol-2-yl)-1,2,5-thiadiazol-3-amine] was less than 50 nM.
Turning to `COc1cc(Cn2c(-c3nonc3N)nc3c(F)cccc32)ccn1` (single isomer, unassigned) [Example 184, 4-(4-fluoro-1-((2-methoxypyridin-4-yl)methyl)-benzimidazol-2-yl)-1,2,5-oxadiazol-3-amine], the concentration for half-maximal inhibition (IC50) was less than 100 nM.
Still for that read-out and setting: the value for `CSc1ccc(Cn2c(-c3nonc3C)nc3ccccc32)cn1` [Example 181, 3-methyl-4-(1-((6-(methylthio)pyridin-3-yl)methyl)-benzimidazol-2-yl)-1,2,5-oxadiazole] was less than 500 nM; that for `N#Cc1ncc(Cn2c(-c3nonc3N)nc3c(F)ccc(F)c32)cn1` [Example 28, 5-[[2-(4-amino-1,2,5-oxadiazol-3-yl)-4,7-difluoro-benzimidazol-1-yl]methyl]pyrimidine-2-carbonitrile] was less than 50 nM.
Same read-out and setting: the value for `CNc1nsnc1-c1nc2ccccc2n1Cc1cccnc1` [Example 96, N-methyl-4-[1-(pyridin-3-ylmethyl)benzimidazol-2-yl]-1,2,5-thiadiazol-3-amine] was less than 100 nM.
